Results: patent publication US9605004B2, “Chemical compounds” (SYNGENTA LIMITED, priority 2013, dated 2017)

Assays:
[1] = test system: a variety of test species; assay: Post-emergence herbicidal activity (Example 8b, Table 3); type: in vivo; settings: application post-emergence, rate 1000 g/ha, evaluated after 13 days, scale 0-5; for Herbicidal damage score, ABUTH: Abutilon theophrasti; for Herbicidal damage score, ALOMY: Alopecurus myosuroides; for Herbicidal damage score, AMARE: Amaranthus retroflexus; for Herbicidal damage score, ECHCG: Echinochloa crus-galli; for Herbicidal damage score, SETFA: Setaria faberi; for Herbicidal damage score, ZEAMX: Zea mays
Method: (§1) Seeds of a variety of test species were sown in standard soil in pots. After 8 days cultivation (post-emergence) under controlled conditions in a glasshouse (at 24/16° C., day/night; 14 hours light; 65% humidity), the plants were sprayed with an aqueous spray solution derived from the formulation of the technical active ingredient in acetone/water (50:50) solution containing 0.5% Tween 20 (polyoxyethelyene sorbitan monolaurate, CAS RN 9005-64-5). The test plants were then grown in a glasshouse under controlled conditions (at 24/16° C., day/night; 14 hours light; 65% humidity) and watered twice daily. After 13 days, the test was evaluated (5=total damage to plant; 0=no damage to plant).

[2] = test system: a variety of test species; assay: Pre-emergence herbicidal activity (Example 8a, Table 2); type: in vivo; parameters: key: 0 = no damage to plant, 5 = total damage to plant; settings: application pre-emergence, rate 1000 g/ha, evaluated after 13 days
Method: as §1, with “After” for “After 8 days”, “for one day (pre-emergence)” for “(post-emergence)”

Row | Compound | Herbicidal damage score, ABUTH [1] | Herbicidal damage score, ALOMY [1] | Herbicidal damage score, AMARE [1] | Herbicidal damage score, ECHCG [1] | Herbicidal damage score, SETFA [1] | Herbicidal damage score, ZEAMX [1] | Pre-emergence herbicidal activity, damage score ABUTH [2] | Pre-emergence herbicidal activity, damage score ALOMY [2] | Pre-emergence herbicidal activity, damage score ECHCG [2] | Pre-emergence herbicidal activity, damage score SETFA [2] | Pre-emergence herbicidal activity, damage score ZEAMX [2] | Pre-emergence herbicidal activity, damage score AMARE [2]
1 | CC(C)=CCc1cc(N2C(=O)C(Cl)=C(C)C2O)nn1C (centres unmarked) [Compound B10, 4-chloro-2-hydroxy-3-methyl-1-[1-methyl-5-(3-methylbut-2-enyl)pyrazol-3-yl]-2H-pyrrol-5-one] | 3 | 0 | 0 | 2 | 5 | 2 | 0 | 0 | 0 | 0 | 0 | –
2 | CC1=C(Cl)C(=O)N(c2cc(/C=C/C(C)(C)C)n(C)n2)C1O (centres unmarked) [Compound B11] | 5 | 3 | 5 | 5 | 5 | 1 | 2 | 2 | 4 | 3 | 2 | 4
3 | CC1=C(Cl)C(=O)N(c2cc(C3=CCC(C)(C)CC3)n(C)n2)C1O (centres unmarked) [Compound B12] | 1 | 1 | 2 | 1 | 1 | 1 | 4 | 0 | 0 | 2 | 1 | 1
4 | CC1=C(Cl)C(=O)N(c2cc(C(F)(F)C(F)(F)F)n(C)n2)C1O (centres unmarked) [Compound B13] | 5 | 5 | 5 | 5 | 5 | 3 | 5 | 4 | 5 | 5 | 2 | 5
5 | CC1=C(Cl)C(=O)N(c2cc(C(C)C)n(C)n2)C1O (centres unmarked) [Compound B14] | 5 | 4 | 5 | 5 | 4 | 5 | 5 | 3 | 5 | 4 | 2 | 5
6 | CC1=C(Cl)C(=O)N(c2ccn(C)n2)C1O (centres unmarked) [Compound B15] | 4 | 3 | 4 | 4 | 2 | 1 | 4 | 3 | 4 | 4 | 2 | 5
7 | CC1=C(Cl)C(=O)N(c2cc(I)n(C)n2)C1O (centres unmarked) [Compound B16] | – | – | – | – | – | 4 | 4 | 4 | 4 | – | 3 | –
8 | CC1=C(Cl)C(=O)N(c2cc(/C=C/C(C)(C)C)n(C)n2)C1O (centres unmarked) [Compound B17] | 5 | 3 | 5 | 5 | 5 | 1 | 2 | 2 | 4 | 3 | 2 | 4
9 | CC1=C(Cl)C(=O)N(c2cc(Cl)n(C)n2)C1O (centres unmarked) [Compound B18] | 5 | 5 | 5 | 5 | 5 | 5 | 4 | 3 | 4 | 5 | 2 | 5
10 | CC(C)=Cc1cc(N2C(=O)C(Cl)=C(C)C2O)nn1C (centres unmarked) [Compound B20] | – | 4 | – | – | – | 2 | 4 | 2 | 4 | 4 | 2 | 4
11 | C/C=C/c1cc(N2C(=O)C(Cl)=C(C)C2O)nn1C (centres unmarked) [Compound B21] | 4 | 2 | 4 | 4 | 5 | 0 | 2 | 3 | 4 | 3 | 0 | 4
12 | CC(C)=CCc1cc(N2C(=O)C(Cl)=C(C)C2O)nn1C (centres unmarked) [Compound B22] | 3 | 0 | 0 | 2 | – | 2 | 0 | 0 | 0 | 0 | 0 | –
13 | C=CCC(C)(C)c1cc(N2C(=O)C(Cl)=C(C)C2O)nn1C (centres unmarked) [Compound B23] | – | – | – | – | – | 4 | – | 4 | 4 | – | 4 | –
14 | CC1=C(Cl)C(=O)N(c2cc(Cc3ccccc3)n(C)n2)C1O (centres unmarked) [Compound B24] | 5 | 4 | 5 | 5 | 5 | 1 | 3 | 3 | 3 | 3 | 0 | 3
15 | CC1=C(Cl)C(=O)N(c2cc(C#CC(C)(C)C)n(C)n2)C1O (centres unmarked) [Compound B25] | 3 | 1 | 3 | 1 | 1 | 0 | 0 | 0 | 0 | 0 | 0 | 2
16 | CC1=C(Cl)C(=O)N(c2cc(CCC(C)C)n(C)n2)C1O (centres unmarked) [Compound B27] | 3 | 1 | 2 | 5 | 5 | 0 | 3 | 1 | 4 | 3 | 2 | 5
